Read-outs that look alike come from different tables or passages of the source.
How the values were obtained:
healthy mice [1] = assay: Toxicity in healthy mice; assay type: in vivo; settings: for well tolerated maximal dose: mice weighing about 25 g
Protocol: Accordingly, a well tolerated maximal dose for CCompound1 or CCompound3 in mice (weighing about 25 g) is […] which corresponds to a dose of 4.6 mg/kg. Therapeutically effective concentrations of CC compounds in humans will exert significant promoting effects on bone marrow regeneration without causing toxicity in other normal healthy tissues.

[2] = test system: transplanted bone marrow cells; assay: Bone marrow regeneration from transplanted bone marrow cells after lethal irradiation (BM cells, CFU-GM); assay type: in vivo, C57B1 mice; settings: for CFU-GM per femur / CFU-GM/10^5 nucleated BM cells: CCompound1 4.5 mg per kg i.p. daily, day -3 to day +3
Protocol: C57B1 female (10-14 weeks old) mice received sublethal (250 cGy) whole body irradiation from a ^137Cesium source (day 0). Starting three days before irradiation, animals received daily 4.5 mg per kg of CCompound1 via intraperitoneal injection; this treatment also was provided on day 0 and once daily for three days subsequent to irradiation. In another group, mice were injected only with physiological saline. The subsequent procedure has been reported in Vas, V., Fajka-Boja, R., Ion, G. A., Dudics, V., Monostori, E. and Uher, F., “Biphasic effect of recombinant Galectin-1 on the growth and death of early hematopoietic cells,” Stem Cells, 23, 279-287 (2005). Briefly, bone marrow was flushed from the femurs with Iscove's modified Dulbecco's medium (Gibco BRL, Gaithersburg, Md., USA), and after standard erythrocyte lysis, nucleated cells were counted using a hemocytometer. Samples were taken on days 0, 1, 3, and 10. To measure the formation of the granulocyte-macrophage colony-forming units (CFU-GM), a semisolid colony-forming cell assay was used. Nucleated bone marrow cells (isolated on the days as indicated above) were plated in 35-mm Petri dishes (Costar, Cambridge, Mass., USA) in Iscove's modified Dulbecco's medium supplemented with 1% methylcellulose, 30% horse serum (Gibco), 10% WEHI-3B conditioned medium as a source of growth factors, 4 mM L-glutamine, 0.25 mM a-thioglycerol (Gibco), 1% deionized bovine serum albumine (Sigma), and antibiotics (Gibco). Cells were cultured at 37° C. in 5% CO2/95% air atmosphere and colonies were counted on day 7 in the same dish. Colonies containing at least 50 cells were counted which is a generally accepted value in the literature. Each value represents the mean±st. dev. of 9 samples (3 parallel dishes from each animal).
In this experiment the goal was to determine if CCompound1 can enhance expansion of transplanted bone marrow cells infused after applying a lethal dose of whole body irradiation (which reduces the number of bone marrow cells by more than 90%). C57B1 female mice (10-14 weeks old) were subjected to 900 cGy whole body irradiation from a ^137Cesium source which was followed within 6 hours by infusion of one million donor nucleated bone marrow cells by tail vein injection. Starting 3 days before irradiation, animals received daily 4.5 mg per kg of CCompound1 via intraperitoneal injection; this treatment also was provided on day 0 and once daily for the subsequent 3 days after irradiation. In another group, mice were injected only with physiological saline.
Bone marrow cells were collected on day 0 from non-irradiated animals as well as on days 6, 14, 28 and 42 after irradiation and bone marrow transplantation. Nucleated bone marrow cells were quantified and CFU-GM assay was performed as described in Example 3 while blood profiling was performed as described in Example 1. For each group, on the indicated days bone marrow and blood samples were collected from 3 animals. Each value presented in Table 5 and Table 6 represents the mean±st. dev. of 3 samples (derived from 3 animals).

healthy mice [3] = assay: Toxicity in healthy mice; assay type: in vivo; settings: 1,000-1,500 μmole doses
MTT cell viability assay = assay type: cell-based; settings: human, read-out: decrease of viability
Protocol: The NIH 3T3 (normal) mouse fibroblast, A431 human epidermoid adenocarcinoma, and MCF-7 human breast cancer cells were cultured in DMEM medium containing 10% FBS. The MEL-28 human melanoma cells were cultured in MEM medium containing 10% FBS. The HT-29 human colon adenocarcinoma cells were cultured in McCoy's 5a medium containing 10% FBS. The A549 human lung carcinoma cells were maintained in Ham's F12K medium containing 10% FBS. T47D cells were cultured in 12-well plates in RPMI 1640 medium supplemented with 0.2 IU bovine insulin and 10% FBS. CaOV-3 human ovarian cancer cells were cultured in DMEM containing 10% FBS. ZR-75-1 human estrogen receptor-positive breast cancer cells were maintained in RPMI 1640 medium supplemented with 10% FBS. HTB-157 human fetal fibroblasts, MEL-24 human malignant melanoma cells, Hep G2 human hepatoblastoma cells, and CaCO-2 human colon adenocarcinoma cells were maintained in Eagles's MEM containing 10% FBS. MB-231 human estrogen receptor-negative breast cancer cells were maintained in Leibovitz's L-15 medium supplemented with 10% FBS.
In the actual experiments, cells were seeded into 96-well plates and cultivated up to either ˜70-90% confluency (survival experiments) or 20-25% confluency (proliferation experiments). Then the medium was changed for serum-free medium (survival experiment) or 2% serum-containing medium (proliferation experiment). The incubation continued for 72 hours followed by the MTT assay to determine cell viability. This calorimetric assay is based on the ability of living cells, but not dead cells, to reduce 3-(4,5-dimethyl thiazol-2-yl)-2,5-diphenyltetrazolium bromide. Carmichael, J, De Graff, W. G., Gazdar, A. F., Minna, J. D. and Mitchell, J. B., “Evaluation of tetrazolium-based semiautomated calorimetric assay: Assessment of chemosensitivity testing,” Cancer Res., 47, 936-942 (1987).

[4] = single 450 μmole (about 4.6 mg/kg) or daily 400 μmole for 5 consecutive days
[5] = day 6 after 900 cGy irradiation and bone marrow transplantation
[6] = day 14 after 900 cGy irradiation and bone marrow transplantation
[7] = day 28 after 900 cGy irradiation and bone marrow transplantation
[8] = day 42 after 900 cGy irradiation and bone marrow transplantation

Cc1c(OCC(O)C[N+](C)(C)C)cc2c(=O)c3ccccc3sc2c1C.[Cl-] (stereo not shown) [CCcompound1, [3-(3,4-Dimethyl-9-oxo-9H-thioxanthen-2-yloxy)-2-hydroxypropyl]trimethyl-ammonium chloride]
well tolerated maximal dose (healthy mice [1]): 450 μmole/animal
well tolerated maximal dose (healthy mice [1]; corresponds to 450 μmole/animal): 4.6 mg/kg
change in the composition of various blood constituents (healthy mice [1]; [4]): did not cause any significant change
pathological alterations in the liver, brain, kidney, heart, spleen, intestine, and lung (healthy mice [1]; [4]): did not induce significant pathological alterations
CFU-GM per femur [2, 5]: 134.9
CFU-GM/10^5 nucleated BM cells [2, 5]: 44.8 ± 5.1
level of bone marrow re-population in the femur, treated versus untreated animals ([2]; day 6 following transplantation): about 5.3 fold
CFU-GM per femur [2, 6]: 650.4
CFU-GM/10^5 nucleated BM cells [2, 6]: 81.2 ± 5.3
level of bone marrow re-population in the femur, treated versus untreated animals ([2]; day 14 following transplantation): ~2.9 fold
CFU-GM per femur [2, 7]: 1,286.4
CFU-GM/10^5 nucleated BM cells [2, 7]: 125.5 ± 9.1
CFU-GM per femur [2, 8]: 992.4
CFU-GM/10^5 nucleated BM cells [2, 8]: 71.5 ± 5.3
tissue alterations at high doses (healthy mice [3]): mild parenchymal degeneration in the heart, focal hypostasis and chronic bronchopneumonia
cytotoxicity at 72 h, 50 μM (MTT cell viability assay; CaOV-3 ovarian cancer cells): 20 to 40%
cytotoxicity at 72 h, 50 μM (MTT cell viability assay; Hep G2 hepatoblastoma cells): 20 to 40%
cytotoxicity at 72 h, 50 μM (MTT cell viability assay; MEL-28 melanoma cells): 20 to 40%
cytotoxicity at 72 h, 50 μM (MTT cell viability assay; ZR-75-1 estrogen receptor-positive breast cancer cells): 20 to 40%
